Data from PubChem BioAssay AID652241 (Broad Institute, 2013).
Inconclusive results are not listed. The source made the active and inactive calls.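 Rule for the calls: active = fitted curve reaches activity 50 in the expected rising direction at or below the top valid tested dose; inconclusive = no clear call, values can overlap the other calls; inactive = activity in the wrong direction, and the rest.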

Biological target: Virion infectivity factor (Human immunodeficiency virus type 1 group M subtype B (isolate BH10)) + Virion infectivity factor (Human immunodeficiency virus type 1 group M subtype B (isolate BRU/LAI)) + Virion infectivity factor (Human immunodeficiency virus type 1 group M subtype B (isolate PCV12)) + Virion infectivity factor (Human immunodeficiency virus type 1 group M subtype B (isolate HXB2)) (UniProt P69720+P69721+P69722+P69723)
Assay: Vif multimerization inhibitor potency, dose response, imaging, HEK293T, cherry-picks (AID 652241);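 note: imaged cell signal that rises when Vif self-association is disrupted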
Details: 24 h

Row | Compound | activity, higher = inhibition (at 19.5 µM (top of the series)) | other results
1 | Cc1ccc(-n2nnc3c(=O)n(CC(=O)OCc4ccccc4)cnc32)cc1 | inactive | –
2 | Clc1ccc(-n2nnnc2Sc2ncnc3sccc23)cc1 | – | AC50: > 6.8 µM (inactive)
3 | CCOC(=O)C1(Cc2cccc(OC)c2)CCN(CCO)CC1 | inactive | –
4 | COc1cc(-c2cnc3c(NC=O)cc(-c4ccccc4)cn23)cc(OC)c1OC | – | AC50: 2.45 µM
5 | Cc1cc(/C=C2\C(=N)N3C(SCc4ccccc4)=NSC3=NC2=O)c(C)n1Cc1ccccc1 | inactive | –
6 | Cc1nc(C)n(CC(=O)N2CCCC(C(=O)c3ccc(C(F)(F)F)cc3)C2)n1 (stereo not given) | – | activity, higher = inhibition (at 6.8 µM (top of the series)): inactive
7 | CCOc1c(C(N)=O)c(-c2ccccc2)c2c(=O)[nH]c3ccccc3n12 | – | AC50: > 19.5 µM (inactive)
8 | COc1ccc(-c2cc(C(=O)Nc3ccc4c(c3)OCO4)no2)cc1 | inactive | –
9 | COc1ccc(OC)c(NC(=O)c2nc(-c3ccccc3)oc2C)c1 | inactive | –
10 | CCn1c(SCc2nc3ccccc3c(=O)[nH]2)nc2ccccc2c1=O | inactive | –
11 | CCCCCCn1c(N(CC)CC)nc2c1c(=O)[nH]c(=O)n2C | inactive | –
12 | NC(=O)c1sc2nc(-c3ccccc3)ccc2c1N | inactive | –
13 | Cc1ccc(-c2nn3c(C)nnc3c3ccccc23)cc1S(=O)(=O)NCc1ccccc1 | inactive | –
14 | Cc1ccc(S(=O)(=O)NC(=O)Nn2c(C)nnc2C)cc1 | inactive | –
15 | COc1ccc(C(=O)NC2CC3CCCC(C2)N3Cc2ccccc2)cc1OC (stereo not given) | inactive | –
16 | CCOc1ccc(C(C)=O)cc1COC(=O)c1cc([N+](=O)[O-])ccc1N1CCOCC1 | inactive | –
17 | COc1ccc(-c2cc(C(F)(F)F)nc(S(C)(=O)=O)n2)cc1OC | – | AC50: 8.03 µM
18 | O=C1/C(=C/c2ccc(N3CCCC3)cc2)NC(=S)N1C1CC1 | inactive | –
19 | Cc1nnc2ccc(-c3cccc(NS(=O)(=O)c4cc(F)ccc4F)c3)nn12 | – | AC50: 10.7 µM
20 | COc1ccccc1NC(=O)c1ccccc1NC(=O)c1ccccn1 | inactive | –
21 | COc1ccccc1-c1cccc2nccn12 | inactive | –
22 | O=C(Nc1cccc(-c2cc3ccccc3oc2=O)c1)c1ccc(Br)o1 | inactive | –
23 | CCc1ccc(S(=O)(=O)Nc2ccc(-c3ccc4nnc(C)n4n3)cc2)s1 | – | AC50: 11.4 µM
24 | Cc1cc(C(=O)Nc2c(F)c(F)c(F)c(F)c2F)n(-c2ccccc2)n1 | inactive | –
25 | Cc1cccc(Nc2nc(-c3ccc(O)c(O)c3)cs2)n1 | – | AC50: > 19.5 µM (inactive)

Row | Compound | activity, higher = inhibition (at 19.5 µM (top of the series)) | other results
26 | COCCNC(=O)c1nn2c(C(F)(F)F)cc(-c3ccccc3)nc2c1Cl | – | AC50: > 19.5 µM (inactive)
27 | CN(Cc1ccccc1)C(=O)CCC1CCN(C(=O)c2ccco2)CC1 | inactive | –
28 | CCOc1nc(N2CCCCC2)nc(-n2cc(-c3ccccc3)nn2)n1 | inactive | –
29 | Cc1ccc(C(=O)COC(=O)c2cc(=O)[nH]c3ccccc23)cc1C | inactive | –
30 | COCCN(C(=O)COC(=O)Cc1ccc(Cl)cc1)c1c(N)n(Cc2ccccc2)c(=O)[nH]c1=O | inactive | –
31 | NS(=O)(=O)c1ccc(-c2ccc(/C=C3\SC(=O)NC3=O)o2)cc1 | inactive | –
32 | O=C(Cn1c(=O)oc2cc(S(=O)(=O)N3CCCCC3)ccc21)N1CCc2ccccc21 | inactive | –
33 | COc1cccc(-c2cc(=O)c3cc(NC(=O)c4ccccc4)ccc3[nH]2)c1 | – | AC50: 5.04 µM
34 | COc1cc(C2c3cc4c(cc3CC3COC(=O)C32)OCO4)cc(OC)c1OC (stereo not given) | – | AC50: 9.81 µM
35 | COc1ccc(CC(NC(C)=O)C(=O)NC2CCN(C(=O)c3ccccc3F)CC2)cc1 (stereo not given) | inactive | –
36 | COCCNCC(=O)Nc1nc(C)cs1 | inactive | –
37 | COc1ccc(-c2csc(-c3cccnc3)n2)cc1C | inactive | –
38 | O=C(Cc1ccccc1)OCC(=O)c1ccc(F)cc1 | inactive | –
39 | COc1ccc(C(=O)Nc2cc(OC)c(NC(=O)Nc3ccccc3)cc2OC)cc1 | inactive | –
40 | O=C(c1ccc(Cl)c(Cl)c1)N(Cc1ccco1)c1ccc(O)cc1 | inactive | –
41 | Nc1c(C(=O)Nc2nc3ccccc3s2)sc2nc(-c3cccs3)ccc12 | – | AC50: 7.57 µM
42 | O=C(CSc1nnc(CNc2ccc(F)cc2)o1)c1ccccc1 | inactive | –
43 | O=C(NCC1CC1)NC(=O)c1c(F)cccc1Cl | inactive | –
44 | CCOC(=O)Cc1csc(NC(=O)CSc2nnnn2-c2ccc(CC)cc2)n1 | inactive | –
45 | Cc1nc(NC(=O)C(C)Oc2cccc(Cl)c2)sc1C(=O)N(C)C (stereo not given) | – | activity, higher = inhibition (at 2.1 µM (top of the series)): inactive
46 | O=C(O)CCCCn1c(SCc2ccccc2Cl)nc2ccsc2c1=O | inactive | –
47 | CCC1(CC)NC(=O)N(CC(=O)Nc2ccc(OCc3ccccc3)cc2)C1=O | inactive | –
48 | O=C1Nc2ccccc2S/C1=C/Nc1cccc(Cl)c1 | – | activity, higher = inhibition (at 6.8 µM (top of the series)): inactive
49 | COc1c(Br)cc(Br)cc1/C=C1/C(=O)N=C(N)N1C | inactive | –
50 | Cc1cc(NS(=O)(=O)c2ccc(NC(=O)c3ccc(Cl)cc3Cl)cc2)no1 | inactive | –
